`COC(=O)c1ccc(Oc2ccc(NC(=O)Nc3ccc(Cl)c(C(F)(F)F)c3)cc2)cn1` [Entry 55, N-(4-chloro-3-(trifluoromethyl)phenyl)-N′-(4-(2-(methoxycarbonyl)-5-pyridyloxy)phenyl) urea]: the melting point – broadly, the temperature of the solid-liquid transition – was 228 to 230 °C.
